Source: US20150231109A1, “COMBINATIONS (CATECHINS AND METHOTREXATE) FOR USE IN THE TREATMENT OF MELANOMAS” (UNIVERSIDAD DE MURCIA, priority 2012, published 2015)

Experiments:
SK-MEL-28 cells = test: Proliferation assay, SK-MEL-28; format: cell-based, human; details: SK-MEL-28, MTX alone
Procedure: B, Proliferation assays performed of control or MTX/TMECG-treated (10 μM/1 μM) SK-MEL-28 cells. […] For time course assay MTX (1 μM) and TMECG (10 μM) were used. […] Data were obtained in triplicate in two independent experiments. […] H, effects of MTX/TMECG (1 μM/10 μM) on cell number of indicated cell lines. Error bars show mean±SD. […] Error bars show mean±SD.
Melanoma cell lines of human and mouse origin were obtained from ATCC and maintained in the appropriate culture medium supplemented with 10% FBS and antibiotics. Cell viability was evaluated using the 3-(4,5-dimethylthiazol-2-yl)-2,5-diphenyltetrazolium bromide (MTT) cell proliferation assay.

[1] = system: B16/F10 primary splenic tumors; test: Primary spleen tumors after intrasplenic injection of luciferase-tagged B16/F10 cells; format: in vivo, mouse
Procedure: C, Luciferase imaging of control and MTX/TMECG-treated mice 12 days post-tumor cell injection. Beetle luciferin (120 mg/kg of mouse) was injected intraperitoneally. The values (means±s.d.) are representative of three independent experiments. *P=0.007; **P=0.002. […] Xenograft tumors treated with DMSO (vehicle) or MTX/TMECG (1 mg/kg/day and 50 mg/kg/day, respectively) over 14-days. […] Representative images taken from two independent experiments (n=5 for each experiment). Scale bar=200 μm and is applicable to both panels. I, B16/F10 melanoma cells, expressing a luciferase reporter, were injected subcutaneously to mice. Mice were divided in two groups (n=7) and treated with vehicle (DMSO) or MTX/TMECG (1 mg/kg/day and 10 mg/kg/day, respectively) over 21-days. Then, tumors were pooled and dissociated. B16/F10 cells extracted from tumors were examined for their sensitivity to the MTX/TMECG combination (1 μM and 10 μM, respectively) using quantification of the luminescence signal (left panel). […] Scale bar refers to all panels. […] Mice were treated with vehicle, MTX (1 mg/kg/day), and/or TMECG (50 mg/kg/day). […] Scale bar refers to all panels.
A, Luciferase imaging of vehicle (control), MTX, and/or TMECG-treated mice 12 days post-tumor cell injection. Firefly luciferin (120 mg/kg of mouse) was injected intraperitoneally. The values are representative of three independent experiments. […] The number of cells was estimated by extrapolation of the experimental luciferase signal to calibration curves. A straight line with a good linear correlation coefficient (0.998) was obtained by plotting luciferase signal vs number of B16/F10-luc2 cells. Treatment of mice (n=6) started 24 hr after tumor induction (Day 1). For all experiments: *p<0.05 with respect to control mice; #p<0.05 with respect to individual MTX or TMECG treatments.

[2] = Pharmacokinetic studies in mice plasma; format: in vivo; details: mouse, ip, male C57BL/6 mice, intra-peritoneal MTX 50 mg/kg alone or with TMECG 50 mg/kg
Procedure: Pharmacokinetic studies were performed in male C57BL/6 mice after intra-peritoneal injection of MTX (50 mg/kg) and/or TMECG (50 mg/kg). Animals were anesthetized with CO2, and whole blood samples (˜0.5 mL) were collected via cardiac puncture. Samples for drug quantification were collected from different animals (in triplicate) at 5, 15, and 30 min and at 1, 2, 4, and 6 hr post-dose. Whole blood samples were transferred to lithium heparin blood collection tubes, and then centrifuged at 10,000 rpm for 10 min at 4° C. After plasma deproteinization with 5% trichloroacetic acid (TCA), MTX and TMECG plasma concentrations were calculated by HPLC. Pharmacokinetic parameters were estimated using the WinNonlin software package (WinNonlin Professional version 5.1., Pharsight Corporation, CA). WinNonlin model 200 was used for the non-compartmental analysis of the concentration-time data. The area under the plasma concentration-time curve (AUClast) from time 0 to the last point (tlast) with measurable concentration (Clast) was estimated using a linear trapezoidal approximation (AUClast). The elimination half-life (t1/2) was calculated as ln2/kel, where kel (elimination rate constant) was estimated using least squares regression analysis of the concentration-time data obtained during the terminal log-linear elimination phase. The maximum plasma concentrations (Cmax) were estimated directly from the data, with tmax being defined as the time of the first occurrence of Cmax.

[3] = Toxicology in non-tumor inoculated C57BL/6 mice; format: in vivo, mouse
Procedure: FIGS. 4A-N. MTX and TMECG combination therapy is effective in vivo. A, A375 melanoma cells were included in a human reconstructed skin model and were treated with MTX (1 μM) and/or TMECG (10 μM) for 14 days. B, B16/F10 melanoma cells were injected subcutaneously into C57/B16 mice. Images show tumor size 17 days post-injection in control and treated mice. […] C, Luciferase imaging of control and MTX/TMECG-treated mice 12 days post-tumor cell injection. Beetle luciferin (120 mg/kg of mouse) was injected intraperitoneally. The values (means±s.d.) are representative of three independent experiments. *P=0.007; **P=0.002. D, Bioluminescent imaging of livers at 14 days post-intrasplenic injection of B16-F10-luc-G5 cells from untreated and MTX/TMECG-treated mice are shown. E, Quantification of macrometastases (0-10, 10-25 or >25) after treatment with vehicle (control), MTX (1 mg/kg/day), and/or TMECG (50 mg/kg/day). F, Photomicrograph of H&E-stained, 4 μm formalin-fixed, paraffin-embedded liver sections from control (DMSO) and MTX/TMECG-treated mice (1 and 50 mg/kg/day, respectively) (5× magnification). G, MTX activation of MITF and tyrosinase activates the melanoma-specific antifolate activity of TMECG, leading to depletion of cellular dTTP and apoptosis. H, Sections stained with hematoxylin and eosin show the effect of MTX/TMECG on B16/F10 primary splenic tumors. Xenograft tumors treated with DMSO (vehicle) or MTX/TMECG (1 mg/kg/day and 50 mg/kg/day, respectively) over 14-days. […] Representative images taken from two independent experiments (n=5 for each experiment). Scale bar=200 μm and is applicable to both panels. I, B16/F10 melanoma cells, expressing a luciferase reporter, were injected subcutaneously to mice. Mice were divided in two groups (n=7) and treated with vehicle (DMSO) or MTX/TMECG (1 mg/kg/day and 10 mg/kg/day, respectively) over 21-days. Then, tumors were pooled and dissociated. B16/F10 cells extracted from tumors were examined for their sensitivity to the MTX/TMECG combination (1 μM and 10 μM, respectively) using quantification of the luminescence signal (left panel). J, The histogram represents the number of B16/F10-luc2 cells remaining after 3 days of MTX/TMECG treatment with respect to vehicle treated controls (100%). […] K, The morphology of tumor dissociated B16/F10-luc2 cells before and after of MTX/TMECG treatment. Scale bar refers to all panels. L, Histograms represent the number of copies of TYR mRNA for every 1×10^3 copies of β-actin±SD of three independent experiments. […]
To explore the toxicity of TMECG and MTX, these agents (at indicated concentrations) were administrated intradermally to the back of non-tumor inoculated female C57BL/6 mice (n=10), and body weight monitored every other day. […]

AUC ([2]; read-out: MTX parameters AUC): 32000 ng·h/mL
Cmax ([2]; read-out: MTX parameters Cmax): 24600 ng/mL
Tmax ([2]; read-out: MTX parameters Tmax): 0.5 h
half-life ([2]; read-out: MTX parameters t1/2 (converted)): 1.77 h
SMILES: CN(Cc1cnc2nc(N)nc(N)c2n1)c1ccc(C(=O)N[C@@H](CCC(=O)O)C(=O)O)cc1 [MTX, methotrexate]
proliferation (SK-MEL-28 cells): reduced proliferation
necrotic areas in splenic tumors ([1]; 14 days treatment, MTX 1 mg/kg/day and/or TMECG 50 mg/kg/day): 4%±2%
effect on in vivo luciferase signal ([1]; MTX or TMECG alone, 12 days post-tumor cell injection): around 2 fold
mouse body weight ([3]; MTX 10 mg/kg/day): induced some weight loss
mouse body weight ([3]; MTX alone 1 mg/Kg/day): no effect
